The record followed here is US20210032345A1, “ANTI-PD-L1 ANTIBODIES, COMPOSITIONS AND ARTICLES OF MANUFACTURE” (Genentech, Inc., priority 2008, published 2021).

In the assay the target is PD-L1. Briefly: FACS binding, rat. The note with it: half-maximal binding. On the procedure:
All samples were run on a […] FACSCalibur and Mean Fluorescence Intensity of PD-L1 binding data as a function of anti-PD-L1 antibody concentration was analyzed using Tree Star, Inc. FlowJo® software; EC50, values (Ab concentration associated with half-maximal binding) were calculated using Kaleidagraph. In addition, equilibrium binding studies were performed to define accurate affinities (Kds) for YW24355570 binding to human and mouse PD-L1 expressed on 293 cells (Example 3B).
(Flow cytometry measures light scatter and fluorescence of single cells or particles in a stream.)

Turning to “YW243.55.S70: affinity-matured phage anti-PD-L1 antibody derived from YW243.55, selected as the primary candidate; full length IgG1”, the EC50 (as a rule, the concentration giving half of the maximal effect) stood at 0.8 nM.
